Test results taken from patent US8586751B2, “Nicotinamide compounds useful as kinase modulators” (Bristol-Myers Squibb Company, priority 2009, dated 2013).

Assays:
[1] = target: T1, human recombinant Btk (Homo sapiens, UniProt Q06187); assay: Human Recombinant Btk Enzyme Assay (LLE_BTK); assay type: biochemical
T1 construct: purchased Invitrogen Corporation
Experimental: Human Recombinant Btk Enzyme Assay
To V-bottom 384-well plates were added test compounds, human recombinant Btk (1 nM, Invitrogen Corporation), fluoresceinated peptide (1.5 μM), ATP (20 μM), and assay buffer (20 mM HEPES pH 7.4, 10 mM MgCl2, 0.015% Brij35 and 4 mM DTT in 1.6% DMSO), with a final volume of 30 μL. After incubating at room temperature for 60 min, the reaction was terminated by adding 45 μl of 35 mM EDTA to each sample. The reaction mixture was analyzed on the Caliper LABCHIP® 3000 (Caliper, Hopkinton, Mass.) by electrophoretic separation of the fluorescent substrate and phosphorylated product. Inhibition data were calculated by comparison to no enzyme control reactions for 100% inhibition and no inhibitor controls for 0% inhibition. Dose response curves were generated to determine the concentration required inhibiting 50% of kinase activity (IC50). Compounds were dissolved at 10 mM in dimethylsulfoxide (DMSO) and evaluated at eleven concentrations.
Using this assay, the following IC50 values derived by non-linear regression analysis were determined and compared to those values of certain compounds in U.S. Publication No. 2007/078136 and U.S. Publication No. 2008/045536.

[2] = test system: Ramos B cells with beta-lactamase reporter gene under control of an NFAT response element; assay: NFAT-bla RA1 Reporter Assay (Ramos-NFAT); assay type: cell-based, human; settings: Homo sapiens, Ramos, read-out: IMM Ramos-NFAT (IC50)
Experimental: NFAT-bla RA1 Reporter Assay
Ramos B cells containing a stable integration of a beta-lactamase reporter gene under the control of an NFAT response element (NFAT-bla RA1, Invitrogen, K1434) at a density of 100×10^3 cells/well were incubated with test compounds at 37° C. for 30 min prior to stimulation with F(ab′)2 anti-human IgM (Jackson ImmunoResearch, 109-006-129) at 2.5 μg/ml for 4.5 hrs at 37° C. After stimulation, LiveBLAzer-FRET B/G substrate (CCF2/AM, or CCF4/AM, Invitrogen) was added to each well and incubated for 90 min at room temperature in the dark. Assay plates were read on an LJL Analyst, with raw emission values subtracted from a media-only blank containing substrate in assay media (no cells). The ratios of 460 nm/530 nm emission (405 nm excitation) were used to calculate the amount of stimulation.

T1 sequence (Q06187 whole entry): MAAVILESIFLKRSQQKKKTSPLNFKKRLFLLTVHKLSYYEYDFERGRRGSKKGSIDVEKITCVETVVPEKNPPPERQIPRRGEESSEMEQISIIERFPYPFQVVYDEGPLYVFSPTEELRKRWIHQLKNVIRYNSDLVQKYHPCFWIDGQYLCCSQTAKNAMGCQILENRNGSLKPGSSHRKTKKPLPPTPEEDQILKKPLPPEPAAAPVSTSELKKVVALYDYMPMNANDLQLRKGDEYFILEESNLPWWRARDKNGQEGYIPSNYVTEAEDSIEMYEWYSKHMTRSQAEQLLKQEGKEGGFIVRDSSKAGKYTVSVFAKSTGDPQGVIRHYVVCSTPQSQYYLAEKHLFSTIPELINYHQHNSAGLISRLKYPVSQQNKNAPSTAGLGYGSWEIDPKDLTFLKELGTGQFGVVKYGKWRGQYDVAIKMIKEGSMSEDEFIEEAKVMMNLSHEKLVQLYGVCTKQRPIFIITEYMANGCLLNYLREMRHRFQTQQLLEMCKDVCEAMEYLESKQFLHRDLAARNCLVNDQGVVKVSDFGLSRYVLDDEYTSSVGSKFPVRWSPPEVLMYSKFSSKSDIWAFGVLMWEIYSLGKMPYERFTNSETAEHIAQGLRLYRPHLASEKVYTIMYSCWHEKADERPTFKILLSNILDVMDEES

| Structure (SMILES) | IC50 [1] [nM] | IC50 [2] [nM] |
| --- | --- | --- |
| NC(=O)c1ccc(N2CCNCC2)nc1Nc1ccc(C(=O)N2CCOCC2)cc1 [Example 10, 2-(4-(Morpholine-4-carbonyl)phenylamino)-6-(piperazin-1-yl)nicotinamide] | 1800 | – |
| Cc1csc(NC(=O)N[C@@H]2CCCN(c3ccc(C(N)=O)c(Nc4ccc(N5CCN(C)CC5)cc4)n3)C2)n1 [Example 12, (R)-2-(4-(4-Methylpiperazin-1-yl)phenylamino)-6-(3-(3-(4-methylthiazol-2-yl)ureido)piperidin-1-yl)nicotinamide] | 7 | 40 |
| NC(=O)c1cc(F)c(N2CCCCC2)nc1Nc1ccc(F)cc1 [Example 15, 5-Fluoro-2-(4-fluorophenylamino)-6-(piperidin-1-yl)nicotinamide] | 870 | – |
| CC(C)(C)c1ccc(C(=O)Nc2cccc(-c3ccc(C(N)=O)c(Nc4ccc(C(=O)N5CCOCC5)cc4)n3)c2)cc1 [Example 37] | 1400 | – |
| CC(C)(C)OC(=O)N[C@@H]1CCN(c2ccc(C(N)=O)c(Nc3ccc(C(=O)N4CCOCC4)cc3)n2)C1 [Example 44] | 750 | – |
| CC(=O)c1ccccc1-c1ccc(C(N)=O)c(Nc2ccc(C(=O)N3CCOCC3)cc2)n1 [Example 132] | 1000 | – |
| Cc1ccc(NC(=O)c2ccc(C(C)(C)C)cc2)cc1-c1ccc(C(N)=O)c(Nc2ccc(C(=O)N3CCOCC3)cc2)n1 [Example 162] | 1400 | – |
| CC(C)(C)c1ccc(NC(=O)[C@@H]2CCCN(c3ccc(C(N)=O)c(Nc4ccc(C(=O)N5CCOCC5)cc4)n3)C2)cc1 [Example 164] | 2700 | – |
| NC(=O)c1ccc(N2CCC[C@@H](C(=O)O)C2)nc1Nc1ccc(C(=O)N2CCOCC2)cc1 [Example 165] | 2900 | – |
| Cc1ccc(NC(=O)N[C@@H]2CCCN(c3ccc(C(N)=O)c(Nc4ccc(N5CCN(C)CC5)cc4)n3)C2)cc1C [Example 283] | 10 | 120 |
| CN1CCN(c2ccc(Nc3nc(N4CCC[C@@H](NC(=O)Nc5nccs5)C4)ccc3C(N)=O)cc2)CC1 [Example 284] | 7 | 60 |
| CC(C)(C)OC(=O)N[C@@H]1CCCN(c2ccc(C(N)=O)c(Nc3ccccc3)n2)C1 [Example 295] | 1700 | – |
| NC(=O)c1ccc(N2CCC[C@@H](N)C2)nc1Nc1ccccc1 [Example 299] | 1500 | – |
| N#Cc1ccc(Nc2nc(N3CCC[C@@H](N)C3)ccc2C(N)=O)cc1 [Example 302] | 880 | – |
| Cc1csc(NC(=O)N[C@@H]2CCCN(c3ccc(C(N)=O)c(Nc4ccc(N5CCOCC5)cc4)n3)C2)n1 [Example 337] | 760 | – |
| NC(=O)c1ccc(-c2cccc3c2CCN(C(=O)c2ccccc2)C3)nc1Nc1ccc(-c2cnco2)cc1 [Example 346] | 2900 | 10000 |

| Structure (SMILES) | IC50 [1] [nM] | IC50 [2] [nM] |
| --- | --- | --- |
| CC(=O)N1CCc2c(cccc2-c2ccc(C(N)=O)c(Nc3ccc(-c4cnco4)cc3)n2)C1 [Example 347] | 2000 | 10000 |
| CCN1CCN(c2ccc(Nc3nc(N4CCC[C@@H](NC(=O)c5ccccc5)C4)ccc3C(N)=O)cc2)CC1 [Example 354] | 4 | 100 |
| CS(=O)(=O)Nc1cccc(Nc2nc(-c3ccc(Cl)cc3)ccc2C(N)=O)c1 [Example 375] | 1200 | – |
| CN(c1cccc(Nc2nc(-c3ccc(Cl)cc3)ccc2C(N)=O)c1)S(=O)(=O)Cc1ccccc1 [Example 376] | 6900 | – |
| NC(=O)c1cc(F)c(N2CCC[C@@H](NC(=O)Nc3nccs3)C2)nc1Nc1ccc(C(=O)N2CCOCC2)cc1 [Example 382] | 2 | 800 |
| CC(=O)N[C@@H]1CCCN(c2nc(Nc3ccc(N4CCN(C)CC4)cc3)c(C(N)=O)cc2F)C1 [Example 386] | 10 | 110 |
| CN1CCN(c2ccc(Nc3nc(N4CCC[C@@H](NC(=O)c5ccccc5)C4)c(F)cc3C(N)=O)cc2)CC1 [Example 388] | 4 | 70 |
| CN1CCN(c2ccc(Nc3nc(N4CCC(O)CC4)c(F)cc3C(N)=O)cc2)CC1 [Example 407] | 30 | 120 |
| CN1CCN(c2ccc(Nc3nc(N4CCC[C@@H](NC(=O)c5ccc(F)c(F)c5)C4)c(F)cc3C(N)=O)cc2)CC1 [Example 413] | 1 | 240 |
| CN1CCN(c2ccc(Nc3nc(N4CCC[C@@H](NC(=O)c5ccc(N(C)C)cc5)C4)c(F)cc3C(N)=O)cc2)CC1 [Example 414] | 2 | 230 |
| CNC(=O)c1ccc(N2CCC[C@@H](NC(=O)c3ccc(C(C)(C)C)cc3)C2)nc1Nc1ccc(C(=O)N2CCOCC2)cc1 [Example 442] | 2600 | – |
| COc1cc(Nc2nc(N3CCC[C@@H](NC(=O)c4ccccc4)C3)c(F)cc2C(N)=O)ccc1OCCNC1CC1 [Example 511] | 730 | – |
| NC(=O)c1cc(F)c(N2CCOCC2)nc1Nc1cccc(CS(=O)(=O)N2CCCC2)c1 [Example 533] | 22000 | – |
| NC(=O)c1cc(F)c(N2CCOCC2)nc1Nc1cccc(N(S(=O)(=O)CCCCl)S(=O)(=O)CCCCl)c1 [Example 535] | 980 | – |
| CN(c1cccc(Nc2nc(N3CCOCC3)c(F)cc2C(N)=O)c1)S(=O)(=O)c1ccc(-c2ccccc2)cc1 [Example 537] | 1100 | – |
| CN(c1cccc(Nc2nc(N3CCOCC3)c(F)cc2C(N)=O)c1)S(=O)(=O)c1cccc2ccccc12 [Example 538] | 1200 | – |

Further compounds by falling IC50 [1], results first:

| IC50 [1] [nM] | IC50 [2] [nM] | Structure (SMILES) |
| --- | --- | --- |
| 12000 | – | NC(=O)c1ccc(NCc2ccccc2)nc1Nc1ccccc1 [Example 298] |
| 3200 | – | CNc1cccc(Nc2nc(-c3ccc(Cl)cc3)ccc2C(N)=O)c1 [Example 380] |
| 2100 | – | NC(=O)c1ccc(N2CC[C@@H](N)C2)nc1Nc1ccc(C(=O)N2CCOCC2)cc1 [Example 45] |
| 1800 | – | CC(C)(C)OC(=O)c1ccc(Nc2nc(N3CCCCC3)ccc2C(N)=O)cc1 [Example 314] |
| 1500 | – | CC(C)(C)c1ccc(NC(=O)[C@@H]2CCN(c3ccc(C(N)=O)c(Nc4ccc(C(=O)N5CCOCC5)cc4)n3)C2)cc1 [Example 163] |
| 1300 | – | Cc1ccc(NC(=O)N[C@@H]2CCCN(c3ccc(C(N)=O)c(Nc4ccccc4)n3)C2)cc1C [Example 300] |
| 1200 | – | NC(=O)c1ccc(-c2ccc(Cl)c(C(F)(F)F)c2)nc1Nc1ccc(C(=O)N2CCOCC2)cc1 [Example 143] |
| 1000 | – | CN(c1cccc(Nc2nc(-c3ccc(Cl)cc3)ccc2C(N)=O)c1)S(=O)(=O)c1ccccc1 [Example 381] |
| 1000 | – | CN(C(=O)Nc1ccccc1)c1cccc(Nc2nc(N3CCOCC3)c(F)cc2C(N)=O)c1 [Example 529] |
| 900 | 920 | NC(=O)c1ccc(-c2cccc3c2CCNC3)nc1Nc1ccc(-c2cnco2)cc1 [Example 345] |
| 780 | – | NC(=O)c1ccc(N2CCCCC2)nc1Nc1ccc(C(=O)Nc2ccccc2)cc1 [Example 323] |
| 780 | – | COc1cccc(Nc2nc(N3CCC[C@@H](NC(=O)Nc4nc(C)cs4)C3)ccc2C(N)=O)c1 [Example 331] |
| 740 | – | NC(=O)c1ccc(N2CC[C@@H](NC(=O)c3ccc(C(F)(F)F)cc3)C2)nc1Nc1ccc(C(=O)N2CCOCC2)cc1 [Example 50] |
| 20 | 120 | CN1CCN(c2ccc(Nc3nc(N4CCCCC4)c(F)cc3C(N)=O)cc2)CC1 [Example 393] |
| 9 | 100 | CC(=O)N1CCN(c2ccc(Nc3nc(N4CCC[C@@H](NC(=O)Nc5ccc(C)c(C)c5)C4)ccc3C(N)=O)cc2)CC1 [Example 361] |
| 4 | 100 | CC(C)N1CCN(c2ccc(Nc3nc(N4CCC[C@@H](NC(=O)c5ccccc5)C4)ccc3C(N)=O)cc2)CC1 [Example 357] |
| 3 | 20 | CN1CCN(c2ccc(Nc3nc(N4CCC[C@@H](NC(=O)Nc5nccs5)C4)c(F)cc3C(N)=O)cc2)CC1 [Example 385] |
| 2 | 380 | CN1CCN(c2ccc(Nc3nc(N4CCC[C@@H](N(C)C(=O)c5ccccc5)C4)c(F)cc3C(N)=O)cc2)CC1 [Example 418] |
| 1 | 160 | CS(=O)(=O)c1ccc(Nc2nc(N3CCCC4(CC(c5ccccc5)=NO4)C3)ccc2C(N)=O)cc1 (stereo not drawn) [Example 29, 2-((4-(Methylsulfonyl)phenyl)amino)-6-(3-phenyl-1-oxa-2,7-diazaspiro[4.5]dec-2-en-7-yl)nicotinamide] |
| 1 | 180 | CN1CCN(c2ccc(Nc3nc(N4CCC[C@@H](NC(=O)c5ccc(F)cc5)C4)c(F)cc3C(N)=O)cc2)CC1 [Example 412] |
| 0.9 | 5700 | NC(=O)c1ccc(N2CCC[C@@H](NC(=O)c3cccc(-c4nc5ccccc5[nH]4)c3)C2)nc1Nc1ccc(C(=O)N2CCOCC2)cc1 [Example 263] |
| 0.6 | – | CN1CCC(C)(c2ccc(Nc3nc(N4CCC[C@@H](NC(=O)Nc5nnc(C(C)(C)C)s5)C4)c(F)cc3C(N)=O)cc2)CC1 [Example 494] |
